The results in this text go back to ChEMBL document CHEMBL3804781, “Antitrypanosomal activity of 5-nitro-2-aminothiazole-based compounds” (Eur J Med Chem, 2016).

Molecules are shown by their SMILES. The source made the active and inactive calls. No cut-off for these calls is given here.

System in the first series: not listed separately
Briefly: Selectivity index, ratio of IC50 for rat L6 cells to IC50 for amastigote stage of Trypanosoma cruzi Tulahuen C4 infected in rat L6 cells. In kind it is toxicity, cell-based. To be noted: read-out: Ratio IC50.
As for `COc1ccc(N2CCN(CC(=O)Nc3ncc([N+](=O)[O-])s3)CC2)cc1`, the selectivity ratio was found to be 14.

Another series relates to Trypanosoma brucei. Kind of series: Activity at recombinant His-tagged Trypanosoma brucei NTR assessed as oxidation of NADH/min/mg of protein after 5 mins by spectrophotometric analysis.
Settings: not given
With `O=C(CN1CCN(c2ccc(C(F)(F)F)cc2)CC1)Nc1ncc([N+](=O)[O-])s1`, the result was Active.

In the case of `O=C(COc1ccc(-c2ccccc2)cc1)Nc1ncc([N+](=O)[O-])s1`, the result was inactive.

Regarding `O=C(CN1CCN(c2ccccn2)CC1)Nc1ncc([N+](=O)[O-])s1`, the result was inactive.

Take `O=C(CN1CCN(c2ccc(Cl)c(Cl)c2)CC1)Nc1ncc([N+](=O)[O-])s1`: the result was inactive.

Turning to `O=C(CN1CCN(C(c2ccccc2)c2ccc(Cl)cc2)CC1)Nc1ncc([N+](=O)[O-])s1` (centres undefined), the result was inactive.

Turning to `O=C(Nc1ncc([N+](=O)[O-])s1)c1ccc(-c2ccccc2)cc1`, the result was inactive.

Consider `O=C(Cn1ccnc1[N+](=O)[O-])NCc1ccccc1`, for which the outcome was Active.

In a further series the test system is Trypanosoma brucei brucei. Kind of series: Antitrypanosomal activity against wild type bloodstream form of Trypanosoma brucei brucei assessed as inhibition of parasite growth after 3 days by resazurin assay. In kind it is functional, organism-based. To be noted: 72 h. In general terms: Resazurin is reduced to fluorescent resorufin, in cell work by metabolically active cells.
As to `O=C(CN1CCN(c2ccccn2)CC1)Nc1ncc([N+](=O)[O-])s1`, the IC50 turned out to be 21.6 µM.

Usually IC50 stands for the concentration at which inhibition is half-maximal.
